{"source": "patent US9486465B2", "about": "“Attractant for bone marrow stem cells and method for attracting bone marrow stem cells” (PIAS CORPORATION, priority 2012, dated 2016)", "tested_on": "wound with full-thickness skin loss in genetically diabetic db/db mice", "experiment": "Cell attraction test in vivo of mice: skin regeneration test (wound healing test)", "design": "species or system mouse", "settings": "120 μg/mL or 40 μg/mL PBS solution, 20 μL per site dropwise onto wound surface, three times per week for four weeks, FIG. 4", "text": "Cell Attraction Test In Vivo of Mice\nIn order to evaluate the performance of the attractant for bone marrow stem cells to attract bone marrow stem cells in vivo of mice, living mice were subjected to experiments as follows. When a living mouse is wounded, bone marrow stem cells can accumulate around the wound portion through the bloodstream. Then, the bone marrow stem cells that have accumulated around the wound portion secrete cytokine, or the bone marrow stem cells that have accumulated around the wound portion differentiate into cells of the wound portion, thereby allowing the wound to be healed. Accordingly, it is expected that application of the attractant for bone marrow stem cells to the wound portion causes the bone marrow stem cells to be attracted to the wound portion, thereby accelerating the healing of the wound.\nMethod of Skin Regeneration Test (Wound Healing Test) […]\nA picture of the back was captured three times per week, for four weeks, and the image was loaded into a PC. Thus, the wound area was measured using an image analysis software (product name: Image J). Thereafter, the wound area was measured once a week until about 60 days from the wound creation.", "data": [{"smiles": "Oc1cc(O)c2c(c1)O[C@@]1(c3ccc(O)c(O)c3)Oc3cc(O)c4c(c3[C@@H]2[C@H]1O)O[C@H](c1ccc(O)c(O)c1)[C@H](O)[C@H]4c1c(O)cc(O)c2c1O[C@H](c1ccc(O)c(O)c1)[C@H](O)C2", "note": "[cinnamtannin B1]", "values": [{"measurement": "wound area measurement (healing of the wound)", "value": "healing of the wound was accelerated"}]}]}
